Among the test systems are NCI-H460; SNB-75; HOP-62; UACC-62; MCF7; OVCAR-8; NCI-H23; T47D; MDA-MB-435; UACC-257; A498; HCT-15; SF-295; SK-OV-3; OVCAR-5; M14; HCT-116; NCI-H226; HT-29.
Common to all, as to test: NCI anticancer screen, dose series, 48 h

Each structure is given as a SMILES string.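 48-hour exposure; five concentrations; linearly interpolated endpoints. The concentration for 50% growth inhibition is given as GI50.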 The source made the active and inactive calls. Rule as the data show it: active = GI50 up to about 1.1 µM and inactive = higher. Where only a bound is given, the exact number is not on record here.

As for `Cc1occc1C(=S)Nc1ccc(Cl)c(C(=O)OC(C)C2CC2)c1` (centres undefined), the GI50 in the experiment with NCI-H460 is 35.7 µM (inactive); in the experiment with SNB-75, 20.4 µM (inactive); with HOP-62, 17.8 µM (inactive); with UACC-62 it was 22.8 µM (inactive); in the experiment on MCF7, 26 µM (inactive); in the experiment on OVCAR-8, 18.3 µM (inactive). The GI50 is 15.6 µM (inactive) in the experiment on NCI-H23; 19.1 µM (inactive) with T47D; 24.8 µM (inactive) in the experiment with MDA-MB-435; 30.3 µM (inactive) with UACC-257; 22.3 µM (inactive) with A498; 18.5 µM in the experiment on HCT-15. Also, the GI50 with SF-295 was 17.2 µM (inactive); in the experiment on SK-OV-3, 21.6 µM (inactive); in the experiment with OVCAR-5, 23.4 µM (inactive); in the experiment on M14, 24.9 µM (inactive); in the experiment with HCT-116 it was 26.5 µM (inactive); in the experiment with NCI-H226 it was 15.5 µM (inactive). In addition, in the experiment with HT-29, the GI50 was 20.6 µM (inactive).
As to `O=C(NCCN1CCCC1)c1cn2c(ccc3sc4ccccc4c(=O)c32)n1`, the GI50 in the experiment on NCI-H460 is 1.01 µM (active); in the experiment with SNB-75, 19.1 µM (inactive); in the experiment on HOP-62, 11.7 µM (inactive); in the experiment with UACC-62 it was 17.1 µM (inactive); with MCF7, 2.77 µM (inactive); in the experiment with OVCAR-8, 4.95 µM (inactive). Besides, the GI50 with NCI-H23 was 14.6 µM (inactive); in the experiment on T47D, 19.6 µM (inactive); in the experiment with MDA-MB-435, 21 µM (inactive); in the experiment on UACC-257, 17.7 µM (inactive); in the experiment on A498, 16.3 µM (inactive); with HCT-15, 10.9 µM. In addition, the GI50 in the experiment with SF-295 was 13.8 µM (inactive); in the experiment with SK-OV-3 it was 16.3 µM (inactive); in the experiment with OVCAR-5, 11.9 µM (inactive); in the experiment on M14, 15.6 µM (inactive); in the experiment with HCT-116, 4.02 µM (inactive); with NCI-H226, 17 µM (inactive). In addition, the GI50 in the experiment with HT-29 is 3.18 µM (inactive).
As to `CN(C)CCCSc1nc2c(c(=N)n1-c1ccccc1)c(=S)n(-c1ccccc1)c(=S)n2-c1ccccc1`, the GI50 was 1.82 µM (inactive) with NCI-H460; 1.63 µM (inactive) in the experiment on SNB-75; 1.8 µM (inactive) with HOP-62; 1.78 µM (inactive) with UACC-62; 0.383 µM (active) in the experiment on MCF7; 1.77 µM (inactive) in the experiment on OVCAR-8. The GI50 was 2.07 µM (inactive) in the experiment with NCI-H23; 2.01 µM (inactive) with T47D; 1.72 µM (inactive) with MDA-MB-435; 1.77 µM (inactive) in the experiment on UACC-257; 2.42 µM (inactive) in the experiment with A498; 1.61 µM with HCT-15. For the same molecule, the GI50 was 5.21 µM (inactive) in the experiment on SF-295; 2.65 µM (inactive) with SK-OV-3; 11.3 µM (inactive) in the experiment on OVCAR-5; 1.78 µM (inactive) in the experiment with M14; 1.98 µM (inactive) in the experiment on HCT-116; 4.74 µM (inactive) in the experiment with NCI-H226. In addition, the GI50 in the experiment on HT-29 was 2.17 µM (inactive).
As for `Cc1ccc(S(=O)(=O)NC2=NS(=O)(=O)c3cc(C)c(Cl)cc3S2)cc1`, the GI50 in the experiment on NCI-H460 was > 100 µM (inactive); with SNB-75, > 100 µM (inactive); in the experiment on HOP-62 it was > 100 µM (inactive); in the experiment on UACC-62, > 100 µM (inactive); with MCF7 it was 85.3 µM (inactive); with OVCAR-8, > 100 µM (inactive). The GI50 was > 100 µM (inactive) in the experiment on NCI-H23; 70.1 µM (inactive) in the experiment on T47D; > 100 µM (inactive) in the experiment with MDA-MB-435; > 100 µM (inactive) with UACC-257; > 100 µM (inactive) in the experiment with A498; > 100 µM in the experiment with HCT-15. In addition, the GI50 is 70.5 µM (inactive) in the experiment on SF-295; > 100 µM (inactive) in the experiment on SK-OV-3; > 100 µM (inactive) in the experiment with OVCAR-5; 81.8 µM (inactive) in the experiment with M14; 88.3 µM (inactive) in the experiment on HCT-116; > 100 µM (inactive) with NCI-H226. In addition, in the experiment on HT-29, the GI50 is > 100 µM (inactive).
Consider `COc1cc(/C=C2\NC(=O)N(/C=C3\C(=O)Oc4ccccc4C3=O)C2=O)ccc1O`, for which the GI50 with NCI-H460 is > 100 µM (inactive); in the experiment on SNB-75, 13.8 µM (inactive); in the experiment on HOP-62, 61.2 µM (inactive); in the experiment on UACC-62, 49 µM (inactive); in the experiment with MCF7, > 100 µM (inactive); in the experiment on OVCAR-8, 56 µM (inactive). The GI50 was 80.2 µM (inactive) with NCI-H23; > 100 µM (inactive) in the experiment with T47D; > 100 µM (inactive) with MDA-MB-435; > 100 µM (inactive) with UACC-257; 42.1 µM (inactive) in the experiment on A498; 39.3 µM in the experiment with HCT-15. Besides, the GI50 in the experiment on SF-295 is > 100 µM (inactive); with SK-OV-3 it was 51.1 µM (inactive); in the experiment on OVCAR-5 it was > 100 µM (inactive); with M14 it was 99.3 µM (inactive); with HCT-116, > 100 µM (inactive); in the experiment on NCI-H226, > 100 µM (inactive). Also, in the experiment with HT-29, the GI50 is 54.5 µM (inactive).
In the case of `C/C=C\C(CC(=O)OC)CC(=O)N(CCC1CN(S(=O)(=O)C(F)(F)F)c2ccccc21)Cc1ccc(OC)cc1OC` (centres undefined), the GI50 was 73.1 µM (inactive) with NCI-H460; > 100 µM (inactive) with SNB-75; > 100 µM (inactive) with HOP-62; > 100 µM (inactive) in the experiment with MCF7; > 100 µM (inactive) with NCI-H23; > 100 µM (inactive) in the experiment on T47D. The GI50 in the experiment on MDA-MB-435 was 35.7 µM (inactive); in the experiment with UACC-257 it was > 100 µM (inactive); with A498, > 100 µM (inactive); with HCT-15, > 100 µM; in the experiment on SF-295 it was > 100 µM (inactive); with SK-OV-3, > 100 µM (inactive). Also, the GI50 in the experiment with OVCAR-5 is > 100 µM (inactive); in the experiment with M14, > 100 µM (inactive); in the experiment on HCT-116 it was 76.2 µM (inactive); in the experiment on NCI-H226 it was > 100 µM (inactive).
As for `CCOC(=O)NC(Nc1ccc(C(=O)OCC)cc1)(C(F)(F)F)C(F)(F)F`, the GI50 with NCI-H460 is 66.8 µM (inactive); with SNB-75, > 100 µM (inactive); in the experiment on HOP-62 it was > 100 µM (inactive); in the experiment on UACC-62, 13.1 µM (inactive); in the experiment with MCF7 it was > 100 µM (inactive); in the experiment on OVCAR-8 it was > 100 µM (inactive). Also, the GI50 was > 100 µM (inactive) in the experiment with NCI-H23; 49 µM (inactive) in the experiment on T47D; 51.2 µM (inactive) with MDA-MB-435; > 100 µM (inactive) with A498; 42.9 µM in the experiment on HCT-15; > 100 µM (inactive) in the experiment on SF-295. The GI50 in the experiment with SK-OV-3 is > 100 µM (inactive); in the experiment with OVCAR-5 it was 79.8 µM (inactive); in the experiment with M14, > 100 µM (inactive); with HCT-116 it was > 100 µM (inactive); in the experiment with NCI-H226, > 100 µM (inactive); in the experiment with HT-29, > 100 µM (inactive).
On to `CSc1nc(SC)c2c(C)c(Br)[nH]c2n1`, for which the GI50 in the experiment on NCI-H460 is > 100 µM (inactive); in the experiment with SNB-75 it was > 100 µM (inactive); in the experiment with HOP-62, > 100 µM (inactive); in the experiment on UACC-62, > 100 µM (inactive); in the experiment on MCF7, 30.9 µM (inactive); in the experiment on OVCAR-8 it was > 100 µM (inactive). The GI50 was > 100 µM (inactive) with NCI-H23; > 100 µM (inactive) in the experiment on T47D; > 100 µM (inactive) in the experiment on MDA-MB-435; > 100 µM (inactive) in the experiment with A498; > 100 µM with HCT-15; > 100 µM (inactive) in the experiment on SF-295. In addition, the GI50 in the experiment on SK-OV-3, with OVCAR-5, in the experiment with M14, with HCT-116, in the experiment on NCI-H226 and with HT-29 was > 100 µM (inactive) each time.
For the molecule `O=C(Nc1ccc(Cl)c(Cl)c1)N1N=C2c3ccccc3CCC2C1c1ccc(Cl)cc1` (centres undefined), the GI50 with NCI-H460, in the experiment with SNB-75, with HOP-62, in the experiment on UACC-62, in the experiment on MCF7 and in the experiment on OVCAR-8 was > 100 µM (inactive) in each case. The GI50 with NCI-H23 is > 100 µM (inactive); with T47D, > 100 µM (inactive); with MDA-MB-435, > 100 µM (inactive); with UACC-257, > 100 µM (inactive); with A498, > 100 µM (inactive); in the experiment with HCT-15 it was > 100 µM. Besides, the GI50 with SF-295, in the experiment on SK-OV-3, in the experiment on OVCAR-5, in the experiment on M14, with HCT-116 and in the experiment on NCI-H226 was > 100 µM (inactive) throughout. The GI50 in the experiment on HT-29 is > 100 µM (inactive).
On to `COc1cccc(/C=C\c2ccnc3ccccc23)c1`, for which the GI50 in the experiment on NCI-H460, in the experiment on SNB-75, in the experiment on HOP-62, in the experiment with UACC-62, with MCF7 and in the experiment on OVCAR-8 was > 10 µM (inactive) each time. Moreover, the GI50 in the experiment on NCI-H23 was > 10 µM (inactive); in the experiment with T47D, > 10 µM (inactive); with MDA-MB-435 it was > 10 µM (inactive); in the experiment on UACC-257, > 10 µM (inactive); in the experiment with A498 it was > 10 µM (inactive); with HCT-15 it was > 10 µM. The GI50 in the experiment with SF-295, in the experiment with SK-OV-3, with OVCAR-5, in the experiment with M14, with HCT-116 and in the experiment on NCI-H226 was > 10 µM (inactive) each time. Further, in the experiment with HT-29, the GI50 was > 10 µM (inactive).
Turning to `CC1=NN(c2nc(N)nc(CCl)n2)C(C)(C)C1`, the GI50 with NCI-H460 is 17.2 µM (inactive); in the experiment on SNB-75, 24.3 µM (inactive); with HOP-62, 3.67 µM (inactive); with UACC-62, 14.8 µM (inactive); in the experiment on MCF7 it was 45 µM (inactive); in the experiment on OVCAR-8, 23.9 µM (inactive). Besides, the GI50 in the experiment on NCI-H23 is 10.8 µM (inactive); in the experiment on T47D, 45.6 µM (inactive); in the experiment with MDA-MB-435, 34.8 µM (inactive); in the experiment on UACC-257, 51.9 µM (inactive); with A498, 30.6 µM (inactive); with HCT-15 it was 21 µM. Also, the GI50 in the experiment with SF-295 was 25.7 µM (inactive); in the experiment on SK-OV-3, > 56 µM (inactive); with OVCAR-5 it was 32 µM (inactive); with M14 it was 30.7 µM (inactive); with HCT-116 it was 25.9 µM (inactive); in the experiment with NCI-H226, 38.1 µM (inactive). The GI50 in the experiment with HT-29 was 29.9 µM (inactive).

The values are drawn from ChEMBL document CHEMBL1201862, “PubChem BioAssay data set” (2004).
